Test results published in the CheMixHub viscosity set.
Where “and” joins values, the source holds several entries; their conditions need not be identical. Equal values may be shown once. ± gives the uncertainty stated by the source.

Experiment: xn = mol fraction of the nth substance listed

CC/C(C)=N/O + CCC(C)=O
viscosity [mPa·s], 101.3 kPa
Details | x1 = 0.0846 | x1 = 0.1716 | x1 = 0.2627 | x1 = 0.3557 | x1 = 0.4528 | x1 = 0.5541 | x1 = 0.6588 | x1 = 0.768 | x1 = 0.8817
293.15 K | 0.459 ± 0.004 | 0.533 ± 0.004 | 0.625 ± 0.005 | 0.759 ± 0.006 | 0.922 ± 0.007 | 1.162 ± 0.008 | 1.511 ± 0.01 | 2.066 ± 0.014 | 3.035 ± 0.02
298.15 K | 0.438 ± 0.004 | 0.508 ± 0.004 | 0.592 ± 0.005 | 0.714 ± 0.005 | 0.86 ± 0.006 | 1.073 ± 0.008 | 1.368 ± 0.009 | 1.836 ± 0.012 | 2.619 ± 0.017
303.15 K | 0.416 ± 0.003 | 0.479 ± 0.004 | 0.558 ± 0.004 | 0.667 ± 0.005 | 0.802 ± 0.006 | 0.987 ± 0.007 | 1.249 ± 0.009 | 1.655 ± 0.011 | 2.306 ± 0.015

CCC(N)C(=O)[O-].[K+] (configuration not stated) + O
viscosity [mPa·s], 101.3 kPa
Details | x1 = 0.009 | x1 = 0.019 | x1 = 0.029 | x1 = 0.039 | x1 = 0.05 | x1 = 0.06
303.15 K | 0.988 ± 0.05 | 1.223 ± 0.062 | 1.552 ± 0.082 | 1.974 ± 0.1 | 2.518 ± 0.14 | 3.297 ± 0.17
308.15 K | 0.884 ± 0.044 | 1.093 ± 0.056 | 1.394 ± 0.071 | 1.74 ± 0.086 | 2.206 ± 0.12 | 2.877 ± 0.15
313.15 K | 0.803 ± 0.039 | 0.984 ± 0.05 | 1.257 ± 0.063 | 1.559 ± 0.075 | 1.962 ± 0.1 | 2.544 ± 0.13
318.15 K | 0.728 ± 0.035 | 0.89 ± 0.045 | 1.133 ± 0.056 | 1.399 ± 0.067 | 1.757 ± 0.09 | 2.257 ± 0.11
323.15 K | 0.67 ± 0.031 | 0.813 ± 0.04 | 1.032 ± 0.051 | 1.272 ± 0.059 | 1.585 ± 0.078 | 2.017 ± 0.1

CC(C)C1CCCCC1 + CCCCCCCCCCCCC
viscosity [mPa·s], 100 kPa
Details | x1 = 0.1077 | x1 = 0.1971 | x1 = 0.3025 | x1 = 0.3985 | x1 = 0.5016 | x1 = 0.5996 | x1 = 0.695 | x1 = 0.799 | x1 = 0.8956
293.15 K | 1.773 ± 0.038 | 1.7 ± 0.037 | 1.619 ± 0.035 | 1.549 ± 0.033 | 1.473 ± 0.032 | 1.4 ± 0.03 | 1.328 ± 0.028 | 1.253 ± 0.027 | 1.18 ± 0.025
298.15 K | 1.615 ± 0.035 | 1.551 ± 0.033 | 1.48 ± 0.032 | 1.419 ± 0.03 | 1.351 ± 0.029 | 1.287 ± 0.028 | 1.224 ± 0.026 | 1.158 ± 0.025 | 1.094 ± 0.023
303.15 K | 1.476 ± 0.032 | 1.421 ± 0.031 | 1.358 ± 0.029 | 1.304 ± 0.028 | 1.245 ± 0.027 | 1.188 ± 0.025 | 1.134 ± 0.024 | 1.075 ± 0.023 | 1.017 ± 0.022
308.15 K | 1.356 ± 0.029 | 1.308 ± 0.028 | 1.253 ± 0.027 | 1.205 ± 0.026 | 1.153 ± 0.025 | 1.103 ± 0.024 | 1.055 ± 0.023 | 1.003 ± 0.021 | 0.95 ± 0.02
313.15 K | 1.251 ± 0.027 | 1.209 ± 0.026 | 1.16 ± 0.025 | 1.118 ± 0.024 | 1.072 ± 0.023 | 1.028 ± 0.022 | 0.984 ± 0.021 | 0.938 ± 0.02 | 0.889 ± 0.019
318.15 K | 1.16 ± 0.025 | 1.123 ± 0.024 | 1.078 ± 0.023 | 1.041 ± 0.022 | 1 ± 0.021 | 0.961 ± 0.021 | 0.922 ± 0.02 | 0.88 ± 0.019 | 0.836 ± 0.018
323.15 K | 1.078 ± 0.023 | 1.045 ± 0.023 | 1.005 ± 0.022 | 0.972 ± 0.021 | 0.935 ± 0.02 | 0.9 ± 0.019 | 0.865 ± 0.018 | 0.827 ± 0.018 | 0.787 ± 0.017

C1CN2CN3CCN(CN1C3)C2 + O
viscosity [mPa·s], 101 kPa
Details | x1 = 0.003598 | x1 = 0.007216 | x1 = 0.01073 | x1 = 0.01425 | x1 = 0.0183
293.15 K | 1.032 ± 0.021 | 1.083 ± 0.021 | 1.146 ± 0.021 | 1.232 ± 0.021 | 1.347 ± 0.021
298.15 K | 0.928 ± 0.021 | 0.985 ± 0.021 | 1.047 ± 0.021 | 1.129 ± 0.021 | 1.24 ± 0.021
300.15 K | 0.843 ± 0.021 | 0.899 ± 0.021 | 0.961 ± 0.021 | 1.04 ± 0.021 | 1.136 ± 0.021
305.15 K | 0.764 ± 0.021 | 0.822 ± 0.021 | 0.88 ± 0.021 | 0.96 ± 0.021 | 1.054 ± 0.021

CCCCCCCCCCCCCCCC[N+](C)(C)CCOCCO.Cc1cc(Cl)ccc1OCC(=O)[O-] + CCCCCCCCCCCCCCCC[N+](C)(C)CCOCCO.Cc1cc(Cl)ccc1O[C@H](C)C(=O)[O-]
100 kPa, x1 = 0.58
Details | viscosity
293.15 K | 4543 ± 970 mPa·s and 4543 ± 280 mPa·s
303.15 K | 1909 ± 100 mPa·s
313.15 K | 928.5 ± 42 mPa·s
323.15 K | 493.4 ± 19 mPa·s

COC(=O)c1ccccc1C(=O)OC + C1CCOC1
viscosity [mPa·s], 101 kPa
Details | x1 = 0.1001 | x1 = 0.2019 | x1 = 0.2966 | x1 = 0.3989 | x1 = 0.5009 | x1 = 0.5992 | x1 = 0.7006 | x1 = 0.8013 | x1 = 0.9004
293.15 K | 0.7426 ± 0.023 | 1.073 ± 0.033 | 1.505 ± 0.046 | 2.155 ± 0.066 | 3.107 ± 0.095 | 4.313 ± 0.13 | 6.121 ± 0.19 | 8.638 ± 0.26 | 12.37 ± 0.38
298.15 K | 0.7028 ± 0.022 | 0.9986 ± 0.031 | 1.383 ± 0.042 | 1.947 ± 0.06 | 2.756 ± 0.084 | 3.756 ± 0.12 | 5.214 ± 0.16 | 7.181 ± 0.22 | 9.998 ± 0.31
303.15 K | 0.666 ± 0.02 | 0.9314 ± 0.029 | 1.276 ± 0.039 | 1.769 ± 0.054 | 2.463 ± 0.076 | 3.303 ± 0.1 | 4.496 ± 0.14 | 6.063 ± 0.19 | 8.238 ± 0.25
308.15 K | 0.6197 ± 0.019 | 0.8698 ± 0.027 | 1.181 ± 0.036 | 1.616 ± 0.05 | 2.217 ± 0.068 | 2.93 ± 0.09 | 3.92 ± 0.12 | 5.189 ± 0.16 | 6.906 ± 0.21
313.15 K | 0.6531 ± 0.08 | 0.8136 ± 0.025 | 1.097 ± 0.034 | 1.483 ± 0.045 | 2.007 ± 0.062 | 2.619 ± 0.08 | 3.45 ± 0.11 | 4.494 ± 0.14 | 5.87 ± 0.18
318.15 K | 0.557 ± 0.017 | 0.7619 ± 0.023 | 1.021 ± 0.031 | 1.365 ± 0.042 | 1.828 ± 0.056 | 2.357 ± 0.072 | 3.063 ± 0.094 | 3.933 ± 0.12 | 5.056 ± 0.16
323.15 K | 0.4957 ± 0.05 | 0.7137 ± 0.022 | 0.9522 ± 0.029 | 1.261 ± 0.039 | 1.674 ± 0.051 | 2.136 ± 0.066 | 2.739 ± 0.084 | 3.474 ± 0.11 | 4.404 ± 0.14

CC(Cl)(Cl)Cl + CC1CCCCC1
303.15 K, 101 kPa
Details | viscosity [mPa·s]
x1 = 0.1468 | 0.6328 ± 0.016
x1 = 0.2138 | 0.629 ± 0.016
x1 = 0.31 | 0.6248 ± 0.016
x1 = 0.4182 | 0.6239 ± 0.016
x1 = 0.5255 | 0.6301 ± 0.016
x1 = 0.5982 | 0.6379 ± 0.017
x1 = 0.69 | 0.6518 ± 0.017
x1 = 0.759 | 0.6659 ± 0.017
x1 = 0.8273 | 0.6809 ± 0.018
x1 = 0.9075 | 0.7009 ± 0.018
